Columns and labels:
[1] = biological target: human BCL6 BTB domain (Trx-6×His-BCL6) / BCOR-AF633 peptide (Homo sapiens (Human), UniProt P41182); test: HTRF assay; type: binding; details: for HTRF avg pIC50 (1 nM): 1 nM Trx-6×His-BCL6, 300 nM BCOR-AF633 peptide, 2 hours incubation; for IC50: read-out: IC50 in the HTRF assay
[2] = biological target: BCL6-NCOR2(SMRT) corepressor protein-protein interaction (Homo sapiens (Human), UniProt P41182); test: NanoBRET cell assay; type: cell-based; details: for IC50: read-out: NanoBRET cell avg pIC50 (converted)
Description: At 20 hr post-transfection, cells were collected, washed with PBS, and exchanged into media containing phenol red-free OptiMEM+4% FBS (Life Technology).

Row | HTRF avg pIC50 (1 nM) [1] | IC50 [2] | IC50 [1] | Compound | NanoBRET cell avg pIC50 ([2]; HEK293T cells co-transfected with BCL6-nanoLuc and NCOR2-HaloTag, 6 hr incubation)
1 | 6.24 | 5130 nM |  | Cn1c(=O)c2c(c3cc(Nc4ccnc(Cl)c4C#N)ccc31)NC(C)(C)CCO2 [Example 1f, 2-chloro-4-((2,2,7-trimethyl-6-oxo-1,2,3,4,6,7-hexahydro-[1,4]oxazepino[2,3-c]quinolin-10-yl)amino)nicotinonitrile] | 
2 | 6.88 | 4790 nM |  | C[C@H]1CCOc2c(c3cc(Nc4cc(C(=O)N5CCC5)nc(Cl)c4C#N)ccc3n(C)c2=O)N1 [Example 3a, (S)-6-(azetidine-1-carbonyl)-2-chloro-4-((2,7-dimethyl-6-oxo-1,2,3,4,6,7-hexahydro-[1,4]oxazepino[2,3-c]quinolin-10-yl)amino)nicotinonitrile] | 
3 | 6.85 | 708 nM |  | Cn1c(=O)c2c(c3cc(Nc4ccnc(Cl)c4Cl)ccc31)N[C@@H](C1CC1)CCO2 [Example 4c] | 
4 | 6.28 | 31600 nM |  | CN(C)C(=O)C1CCN(c2ncc(Cl)c(Nc3ccc4c(c3)c3c(c(=O)n4C)C(=O)OC[C@H](C4CC4)N3)n2)CC1 [Example 8m, (S)-1-(5-chloro-4-((2-cyclopropyl-7-methyl-5,6-dioxo-1,2,3,5,6,7-hexahydro-[1,4]oxazepino[6,5-c]quinolin-10-yl)amino)pyrimidin-2-yl)-N,N-dimethylpiperidine-4-carboxamide] | 
5 | 8.35 | 30.2 nM |  | Cn1c(=O)c2c(c3cc(Nc4ccnc(Cl)c4C#N)ccc31)NC(C1CC1)C(F)(F)CO2 (stereo not drawn) [Example 1q, 2-chloro-4-((2-cyclopropyl-3,3-difluoro-7-methyl-6-oxo-1,2,3,4,6,7-hexahydro-[1,4]oxazepino[2,3-c]quinolin-10-yl)amino)nicotinonitrile] | 
6 | 7.64 | 89.1 nM |  | Cn1c(=O)c2c(c3cc(Nc4nc(N5C6CC7CC5CC(C6)O7)ncc4Cl)ccc31)N[C@@H](C1CC1)CCO2 [Example 5o, (R)-10-((2-(2-oxa-6-azaadamantan-6-yl)-5-chloropyrimidin-4-yl)amino)-2-cyclopropyl-7-methyl-1,2,3,4-tetrahydro-[1,4]oxazepino[2,3-c]quinolin-6(7H)-one] | 
7 | 6.32 | 8710 nM |  | CCC1CCOc2c(c3cc(Nc4ccnc(Cl)c4C#N)ccc3n(C)c2=O)N1 (stereo not drawn) [Example 1c, 2-chloro-4-((2-ethyl-7-methyl-6-oxo-1,2,3,4,6,7-hexahydro-[1,4]oxazepino[2,3-c]quinolin-10-yl)amino)nicotinonitrile] | 
8 | 7.13 | 234 nM |  | Cn1c(=O)c2c(c3cc(Nc4nc(N5CCC(F)(F)CC5)ncc4Cl)cnc31)N[C@@H](C1CC1)CCO2 [Example 5s, (R)-10-((5-chloro-2-(4,4-difluoropiperidin-1-yl)pyrimidin-4-yl)amino)-2-cyclopropyl-7-methyl-1,2,3,4-tetrahydro-[1,4]oxazepino[2,3-c][1,8]naphthyridin-6(7H)-one] | 
9 | 8.15 | 3090 nM |  | Cn1c(=O)c2c(c3cc(Nc4ccnc(Cl)c4C#N)ccc31)N[C@@H](C1CC1)CCS2(=O)=O [Example 1u, (R)-2-chloro-4-((2-cyclopropyl-7-methyl-5,5-dioxido-6-oxo-1,2,3,4,6,7-hexahydro-[1,4]thiazepino[2,3-c]quinolin-10-yl)amino)nicotinonitrile] | 
10 | 6.51 | 1020 nM |  | C[C@@H]1CN(c2nc(Cl)c(Cl)c(Nc3ccc4c(c3)c3c(c(=O)n4C)OCC[C@H](C4CC4)N3)n2)C[C@H](C)O1 [Example 1r, (R)-2-cyclopropyl-10-((5,6-dichloro-2-((2S,6R)-2,6-dimethylmorpholino)pyrimidin-4-yl)amino)-7-methyl-1,2,3,4-tetrahydro-[1,4]oxazepino[2,3-c]quinolin-6(7H)-one] | 
11 | 7.80 | 60.3 nM |  | CN1CCN(c2ncc(Cl)c(Nc3ccc4c(c3)c3c(c(=O)n4C)OCC[C@H](C4CC4)N3)n2)CC1=O [Example 12b, (R)-10-((5-chloro-2-(4-methyl-3-oxopiperazin-1-yl)pyrimidin-4-yl)amino)-2-cyclopropyl-7-methyl-1,2,3,4-tetrahydro-[1,4]oxazepino[2,3-c]quinolin-6(7H)-one] | 
12 | 6.74 |  |  | C[C@H]1CN(c2ncc(Cl)c(Nc3ccc4c(c3)c3c(c(=O)n4C)OCC[C@H](C4CC4)N3)n2)CCC1(F)F (single isomer, unassigned) [Example 14a, (R)-10-((5-chloro-2-((S)-4,4-difluoro-3-methylpiperidin-1-yl)pyrimidin-4-yl)amino)-2-cyclopropyl-7-methyl-1,2,3,4-tetrahydro-[1,4]oxazepino[2,3-c]quinolin-6(7H)-one or (R)-10-((5-chloro-2-((R)-4,4-difluoro-3-methylpiperidin-1-yl)pyrimidin-4-yl)amino)-2-cyclopropyl-7-methyl-1,2,3,4-tetrahydro-[1,4]oxazepino[2,3-c]quinolin-6(7M)-one] | 
13 | 7.94 |  |  | Cn1c(=O)c2c(c3cc(Nc4nc(N5CCC(F)(F)CC5)ncc4Cl)ccc31)N[C@@H](C1CC1)C(F)(F)CO2 [Example 12n, (S)-10-((5-chloro-2-(4,4-difluoropiperidin-1-yl)pyrimidin-4-yl)amino)-2-cyclopropyl-3,3-difluoro-7-methyl-1,2,3,4-tetrahydro-[1,4]oxazepino[2,3-c]quinolin-6(7H)-one] | 
14 | 7.51 |  |  | (R)-10-((5-chloro-2-((R)-4,4-difluoro-3- (hydroxymethyl)piperidin-1-yl)pyrimidin-4-yl)amino)-2- cyclopropyl-7-methyl-1,2,3,4-tetrahydro- [1,4]oxazepino[2,3-c]quinolin-6(7H)-one or (R)-10-((5-chloro- 2-((S)-4,4-difluoro-3-(hydroxymethyl)piperidin-1-yl)pyrimidin- 4-yl)amino)-2-cyclopropyl-7-methyl-1,2,3,4-tetrahydro- [1,4]oxazepino[2,3-c]quinolin-6(7H)-one [Example 15b] | 
15 | 6.71 |  |  | Cn1c(=O)c2c(c3cc(Nc4ccnc(Cl)c4C#N)ccc31)NC(C1CC1)COC2=O (stereo not drawn) [Example 6c, 2-chloro-4-((2-cyclopropyl-7-methyl-5,6-dioxo-1,2,3,5,6,7-hexahydro-[1,4]oxazepino[6,5-c]quinolin-10-yl)amino)nicotinonitrile] | 
16 | 6.78 |  |  | C[C@H]1COC(=O)c2c(c3cc(Nc4nc(N5CCC(C(=O)N(C)C)CC5)ncc4Cl)ccc3n(C)c2=O)N1 [Example 8d, (S)-1-(5-chloro-4-((2,7-dimethyl-5,6-dioxo-1,2,3,5,6,7-hexahydro-[1,4]oxazepino[6,5-c]quinolin-10-yl)amino)pyrimidin-2-yl)-N,N-dimethylpiperidine-4-carboxamide] | 
17 |  |  | > 2500 nM | CC(C)C1CCOc2c(c3cc(Nc4ccnc(Cl)c4C#N)ccc3n(C)c2=O)N1 (stereo not drawn) [2-chloro-4-((2-isopropyl-7-methyl-6-oxo-1,2,3,4,6,7-hexahydro-[1,4]oxazepino[2,3-c]quinolin-10-yl)amino)nicotinonitrile] | 
18 |  |  | > 2500 nM | Cn1c(=O)c2c(c3cc(Nc4ccnc(Cl)c4C#N)ccc31)NC(C)(C)COC2=O [2-chloro-4-((2,2,7-trimethyl-5,6-dioxo-1,2,3,5,6,7-hexahydro-[1,4]oxazepino[6,5-c]quinolin-10-yl)amino)nicotinonitrile] | 

Row | Compound | HTRF avg pIC50 (1 nM) [1] | IC50 [2] | IC50 [1] | NanoBRET cell avg pIC50 ([2]; HEK293T cells co-transfected with BCL6-nanoLuc and NCOR2-HaloTag, 6 hr incubation)
19 | Cn1c(=O)c2c(c3cc(Nc4nc(N5C6CCC5COC6)ncc4Cl)ccc31)N[C@@H](C1CC1)CCO2 [Example 5l, (R)-10-((2-(3-oxa-8-azabicyclo[3.2.1]octan-8-yl)-5-chloropyrimidin-4-yl)amino)-2-cyclopropyl-7-methyl-1,2,3,4-tetrahydro-[1,4]oxazepino[2,3-c]quinolin-6(7H)-one] | 7.49 | 120 nM |  | 
20 | O=c1c2c(c3cc(Nc4nc(N5C6CCC5COC6)ncc4Cl)ccc3n1CC1CC(F)(F)C1)N[C@@H](C1CC1)CCO2 [Example 5q, (R)-10-((2-(3-oxa-8-azabicyclo[3.2.1]octan-8-yl)-5-chloropyrimidin-4-yl)amino)-2-cyclopropyl-7-((3,3-difluorocyclobutyl)methyl)-1,2,3,4-tetrahydro-[1,4]oxazepino[2,3-c]quinolin-6(7H)-one] | 7.63 | 97.7 nM |  | 
21 | Cn1c(=O)c2c(c3cc(Nc4nc(N5C6CCC5COC6)ncc4Cl)ccc31)N[C@@H](C1CC1)C(F)(F)CO2 [Example 12v, (S)-10-((2-(3-oxa-8-azabicyclo[3.2.1]octan-8-yl)-5-chloropyrimidin-4-yl)amino)-2-cyclopropyl-3,3-difluoro-7-methyl-1,2,3,4-tetrahydro-[1,4]oxazepino[2,3-c]quinolin-6(7H)-one] | 8.86 | 8.32 nM |  | 
22 | C[C@H]1COC(=O)c2c(c3cc(Nc4nc(N5C6CCC5CC(F)(F)C6)ncc4Cl)ccc3n(C)c2=O)N1 [Example 8f, (2S)-10-((5-chloro-2-(3,3-difluoro-8-azabicyclo[3.2.1]octan-8-yl)pyrimidin-4-yl)amino)-2,7-dimethyl-2,3-dihydro-[1,4]oxazepino[6,5-c]quinoline-5,6(1H,7H)-dione] | 6.67 | 6920 nM |  | 
23 | (R)-10-((5-chloro-2-((3S,5R)-3-hydroxy-5- methylpiperidin-1-yl)pyrimidin-4-yl)amino)-2-cyclopropyl-7- methyl-1,2,3,4-tetrahydro-[1,4]oxazepino[2,3-c]quinolin-6(7H)-one or (R)-10-((5-chloro-2-((3R,5S)-3-hydroxy-5-methylpiperidin-1- yl)pyrimidin-4-yl)amino)-2-cyclopropyl-7-methyl-1,2,3,4-tetrahydro- [1,4]oxazepino[2,3-c]quinolin-6(7H)-one: formic acid (1:1) [Example 12d] | 7.74 |  |  | 7.06

— patent US20230287003A1, “BCL6 INHIBITORS” (Cancer Research Technology Limited, priority 2018, published 2023)
